Counter-ions that a name gives are not always drawn. Like-named read-outs stand apart in the source and are kept apart here.
Experiments:
[1] = Blood level in oral administration (ampicillin concentration in serum, bioassay); format: in vivo, mice (ddY-strain); details: mice; for Ratio of the concentration of ampicillin in the serum: 50 mg/kg as ampicillin, ratio to ampicillin trihydrate (C = 1.0)
Protocol: Each of the test compounds (as an aqueous solution having a concentration of 5 mg/ml as ampicillin) was orally administered in a dose of 50 mg/kg as ampicillin to four week old mice (ddY-strain, body weight about 20 g, five per group) which were caused to fast overnight. The blood was taken from the mice periodically, and the concentration of ampicillin in the serum was measured by a bioassay method. The blood Ampicillin level ratio was calculated from the following equation. [formula]

in vitro [2] = format: in vitro ADME; details: pH 1.2
Protocol: (§1) 1. Test compounds: A and B above
Each of the test compounds was dissolved in an acidic medium (pH 1.2) consisting of 2.0 g of sodium chloride, 24 ml of 10% hydrochloric acid, 3.2 g of pepsin and 1000 ml of water. The solution was shaken at 37° C., and sampled periodically. The sample was subjected to high-performance liquid chromatography using a reversed phase partition column, and the degree of hydrolysis of each of the test compounds was determined from a decrease in its peak height.

in vitro [3] = format: in vitro ADME; details: pH 7.5
Protocol: as §1
Each of the test compounds was dissolved in a basic medium (pH 7.5) consisting of 35.8 g of disodium phosphate, 6.0 ml of 10% hydrochloric acid and 2.8 g of pancreatin and 1000 ml of water, and the degree of hydrolysis of each test compound was determined as in the case of the acidic medium.

[4] = Conversion to ampicillin in 40% mouse blood (incubation and bioautography); format: in vitro ADME
Protocol: The resulting ampicillin ester hydrochloride was incubated at 37° C. for 10 minutes in 40% mouse blood, and then bioautographed.
The resulting ampicillin (5-phenyl-2-oxo-1,3-dioxolen-4-yl)methyl ester hydrochloride was incubated at 37° C. for […] in 40% mouse blood, and then bioautographed.
The product was incubated and bioautographed in the same way as in Referential Example 1.

SMILES: Cc1oc(=O)oc1COC(=O)[C@@H]1N2C(=O)[C@@H](NC(=O)[C@H](N)c3ccccc3)[C@H]2SC1(C)C [A, Ampicillin (5-methyl-2-oxo-1,3-dioxolen-4-yl) methyl ester hydrochloride]
- Absorption, conversion to ampicillin and blood level (in words) ([1]; compared with C and B): easily absorbed and converted back to the original ampicillin in vivo, and shows a high blood level over a longer period of time than ampicillin (C) and the known ampicillin ester (B)
- metabolised at 1 h (in vitro [2]; acidic medium with pepsin): 7%
- metabolised at 4 h (in vitro [2]; acidic medium with pepsin): 20%
- Stability in the acidic medium (in words) (in vitro [2]): much more stable than the known control compound (B)
- metabolised at 1 h (in vitro [3]; basic medium with pancreatin): 80%
- Stability in the basic medium (in words) (in vitro [3]): much more stable than the known control compound (B)
- Conversion to ampicillin in mouse blood ([4]; 40% mouse blood, 37° C., 10 minutes): completely changed to ampicillin

SMILES: CC1(C)S[C@@H]2[C@H](NC(=O)[C@H](N)c3ccccc3)C(=O)N2[C@H]1C(=O)OC1CCCc2oc(=O)oc21 (stereo partly drawn) [Referential Example 1, ampicillin (2,3-carbonyldioxy-2-cyclohexenyl) ester hydrochloride]
- Conversion to ampicillin in mouse blood [4]: changed completely to ampicillin

SMILES: CC1(C)S[C@@H]2[C@H](NC(=O)[C@H](N)c3ccccc3)C(=O)N2[C@H]1C(=O)OCc1oc(=O)oc1-c1ccccc1 [Referential Example 2, ampicillin (5-phenyl-2-oxo-1,3-dioxolen-4-yl)methyl ester hydrochloride]
- Conversion to ampicillin in mouse blood [4]: completely changed to ampicillin

SMILES: CC1(C)S[C@@H]2[C@H](NC(=O)[C@H](N)c3ccccc3)C(=O)N2[C@H]1C(=O)OC1OC(=O)c2ccccc21 (stereo partly drawn) [B, Ampicillin phthalidyl ester hydrochloride]
- metabolised at 20 h (in vitro [2]; acidic medium with pepsin): 100%
- metabolised at 20 min (in vitro [3]; basic medium with pancreatin): 90%
- metabolised at 1 h (in vitro [3]; basic medium with pancreatin): 100%

SMILES: CC1(C)S[C@@H]2[C@H](NC(=O)[C@H](N)c3ccccc3)C(=O)N2[C@H]1C(=O)O [C, Ampicillin trihydrate]
- Ratio of the concentration of ampicillin in the serum ([1]; 15 min): 1.0
- Ratio of the concentration of ampicillin in the serum ([1]; 30 min): 1.0
- Ratio of the concentration of ampicillin in the serum ([1]; 60 min): 1.0
- Ratio of the concentration of ampicillin in the serum ([1]; 90 min): 1.0
- Ratio of the concentration of ampicillin in the serum ([1]; 120 min): 1.0
- Ratio of the concentration of ampicillin in the serum ([1]; 180 min): 1.0

From patent US4428806A, “Process for producing brominated 1,3-dioxolen-2-ones” (priority 1981, dated 1984)
